Assay [1] deals with Rattus norvegicus. The experiment in a line: Induction of diuresis action in Rattus norvegicus albino (rat) assessed as urinary excretion at 20 mg/kg, po measured at 5-18 hr after drug administration by standard Lipschitz method against untreated control (reference value: 1 no unit). It is filed as functional, Urine.
In assay [2] the test system is Rattus norvegicus. The experiment in a line: Induction of diuresis action in Rattus norvegicus albino (rat) assessed as urinary excretion at 20 mg/kg, po measured at 0-5 hr after drug administration by standard Lipschitz method against untreated control (reference value: 1 no unit). In kind it is functional, Urine.
The test system of assay [3] is Rattus norvegicus. As to the kind of experiment: Induction of diuresis in Rattus norvegicus albino (rat) assessed as normal saline intake at 20 mg/kg, po measured at 0-5 hr after drug administration by standard Lipschitz method (reference value: 2.50 +/-0.036 ml). In kind it is functional.
In assay [4] the test system is Rattus norvegicus. As to the kind of experiment: Induction of diuresis in Rattus norvegicus albino (rat) assessed as urinary K+ excretion at 20 mg/kg, po measured at 5-18 hr after drug administration by standard Lipschitz method (reference value: 0.22 +/-0.004 mEq/L). In kind it is functional, Urine.
For assay [5], the system named is Rattus norvegicus. As to the kind of experiment: Induction of diuresis in Rattus norvegicus albino (rat) assessed as urinary Na+ excretion at 20 mg/kg, po measured at 5-18 hr after drug administration by standard Lipschitz method (reference value: 0.65+/-0.006 mEq/L). It is filed as functional, Urine.
The test system of assay [6] is Rattus norvegicus. The experiment in a line: Induction of diuresis in Rattus norvegicus albino (rat) assessed as urinary excretion at 20 mg/kg, po measured at 5-18 hr after drug administration by standard Lipschitz method (reference value: 50.4%). In kind it is functional, Urine.
In assay [7] the test system is Rattus norvegicus. As to the kind of experiment: Induction of diuresis in Rattus norvegicus albino (rat) assessed as urinary Cl- excretion at 20 mg/kg, po measured at 0-5 hr after drug administration by standard Lipschitz method (reference value: 0.46 +/-0.005 mEq/L). It is filed as functional, Urine.
Assay [8] concerns Rattus norvegicus. As to the kind of experiment: Induction of diuresis in Rattus norvegicus albino (rat) assessed as urinary K+ excretion at 20 mg/kg, po measured at 0-5 hr after drug administration by standard Lipschitz method (reference value: 0.46 +/-0.006 mEq/L). It is filed as functional, Urine.
Assay [9] deals with Rattus norvegicus. The experiment in a line: Induction of diuresis in Rattus norvegicus albino (rat) assessed as normal saline intake at 20 mg/kg, po measured at 5-18 hr after drug administration by standard Lipschitz method (reference value: 2.50 +/-0.036 ml). It is filed as functional.
Assay [10] deals with Rattus norvegicus. As to the kind of experiment: Induction of diuresis in Rattus norvegicus albino (rat) assessed as total urinary output at 20 mg/kg, po measured at 5-18 hr after drug administration by standard Lipschitz method (reference value: 1.26 +/-0.049 ml). It is filed as functional, Urine.
The subject of assay [11] is Rattus norvegicus. The experiment in a line: Induction of diuresis in Rattus norvegicus albino (rat) assessed as urinary Na+ excretion at 20 mg/kg, po measured at 0-5 hr after drug administration by standard Lipschitz method (reference value: 0.90 +/-0.003 mEq/L). In kind it is functional, Urine.
Assay [12] has as its system Rattus norvegicus. The experiment in a line: Induction of diuresis activity in Rattus norvegicus albino (rat) assessed as urinary excretion at 20 mg/kg, po measured at 5-18 hr after drug administration by standard Lipschitz method against frusemide-treated control (reference value: 0.2 no unit). In kind it is functional, Urine.
The subject of assay [13] is Rattus norvegicus. As to the kind of experiment: Induction of diuresis in Rattus norvegicus albino (rat) assessed as urinary excretion at 20 mg/kg, po measured at 0-5 hr after drug administration by standard Lipschitz method (reference value: 98.40%). It is filed as functional, Urine.
For assay [14], the system named is Rattus norvegicus. As to the kind of experiment: Induction of diuresis activity in Rattus norvegicus albino (rat) assessed as urinary excretion at 20 mg/kg, po measured at 0-5 hr after drug administration by standard Lipschitz method against frusemide-treated control (reference value: 0.5 no unit). In kind it is functional, Urine.
The subject of assay [15] is Rattus norvegicus. As to the kind of experiment: Induction of diuresis in Rattus norvegicus albino (rat) assessed as urinary Cl- excretion at 20 mg/kg, po measured at 5-18 hr after drug administration by standard Lipschitz method (reference value: 0.38 +/-0.011 mEq/L). It is filed as functional, Urine.
Assay [16] deals with Rattus norvegicus. As to the kind of experiment: Induction of diuresis in Rattus norvegicus albino (rat) assessed as total urinary output at 20 mg/kg, po measured at 0-5 hr after drug administration by standard Lipschitz method (reference value: 2.46 +/-0.125 ml). It is filed as functional, Urine.

Turning to `COc1cc(C2CC(c3ccc(Cl)cc3)=NN2C(=O)COc2ccc(C)cc2)ccc1OCC(=O)O` (configuration not stated), the Ratio in the assay with Rattus norvegicus [1] turned out to be 5.68; in the assay on Rattus norvegicus [2], 2; in the assay on Rattus norvegicus [12] it was 1.14; with Rattus norvegicus [14] it was 1.01. The Activity was determined as 2.86 mL in the assay on Rattus norvegicus [3]; 1.87 mEq/L in the assay with Rattus norvegicus [4]; 3.13 mEq/L in the assay on Rattus norvegicus [5]; 284.96% in the assay with Rattus norvegicus [6]; 1.36 mEq/L in the assay with Rattus norvegicus [7]; 1.32 mEq/L in the assay with Rattus norvegicus [8]. The Activity with Rattus norvegicus [9] is 2.86 mL; with Rattus norvegicus [10] it was 8.15 mL; with Rattus norvegicus [11] it was 2.61 mEq/L; in the assay with Rattus norvegicus [13] it was 197.55%; in the assay on Rattus norvegicus [15] it was 1.68 mEq/L; in the assay with Rattus norvegicus [16], 5.65 mL.

As to `COc1cc(C2CC(c3ccc(O)cc3)=NN2C(=O)COc2ccc(C)cc2)ccc1OCC(=O)O` (configuration not stated), the Ratio in the assay with Rattus norvegicus [1] was determined as 0.22; in the assay on Rattus norvegicus [2], 0.6; with Rattus norvegicus [12], 0.04; in the assay with Rattus norvegicus [14] it was 0.3. In addition, the Activity stood at 2.88 mL in the assay with Rattus norvegicus [3]; 0.19 mEq/L in the assay with Rattus norvegicus [4]; 0.12 mEq/L with Rattus norvegicus [5]; 11.45% in the assay on Rattus norvegicus [6]; 0.24 mEq/L with Rattus norvegicus [7]; 0.25 mEq/L with Rattus norvegicus [8]. Further, the Activity worked out at 2.88 mL with Rattus norvegicus [9]; 0.33 mL in the assay on Rattus norvegicus [10]; 0.45 mEq/L in the assay with Rattus norvegicus [11]; 62.84% with Rattus norvegicus [13]; 0.07 mEq/L in the assay on Rattus norvegicus [15]; 1.81 mL in the assay with Rattus norvegicus [16].

In the case of `COc1cc(C2CC(c3ccc(Cl)cc3)=NN2C(=O)c2ccc(C)cc2)ccc1OCC(=O)O` (configuration not stated), the Ratio in the assay with Rattus norvegicus [1] is listed as 9.32; with Rattus norvegicus [2], 2.2; in the assay on Rattus norvegicus [12] it was 1.88; with Rattus norvegicus [14], 1.11. For the same compound, the Activity turned out to be 2.61 mL with Rattus norvegicus [3]; 2.66 mEq/L with Rattus norvegicus [4]; 4.31 mEq/L with Rattus norvegicus [5]; 466.66% with Rattus norvegicus [6]; 0.76 mEq/L in the assay on Rattus norvegicus [7]; 0.81 mEq/L with Rattus norvegicus [8]. Also, the Activity with Rattus norvegicus [9] is 2.61 mL; with Rattus norvegicus [10], 12.18 mL; in the assay on Rattus norvegicus [11] it was 1.56 mEq/L; with Rattus norvegicus [13], 223.37%; with Rattus norvegicus [15] it was 2.69 mEq/L; in the assay with Rattus norvegicus [16], 5.83 mL.

For the compound `COc1ccc(C2=NN(C(=O)COc3ccccc3)C(c3ccc(OCC(=O)O)c(OC)c3)C2)cc1` (configuration not stated), the Ratio with Rattus norvegicus [1] is reported as 3.8; with Rattus norvegicus [2] it was 1.8; in the assay with Rattus norvegicus [12], 0.76; in the assay with Rattus norvegicus [14], 0.91. Also, the Activity stood at 2.84 mL with Rattus norvegicus [3]; 1.35 mEq/L in the assay on Rattus norvegicus [4]; 2.62 mEq/L in the assay on Rattus norvegicus [5]; 190.49% in the assay on Rattus norvegicus [6]; 0.96 mEq/L in the assay on Rattus norvegicus [7]; 0.54 mEq/L in the assay with Rattus norvegicus [8]. Also, the Activity in the assay on Rattus norvegicus [9] came out at 2.84 mL; in the assay on Rattus norvegicus [10] it was 5.41 mL; with Rattus norvegicus [11], 1.92 mEq/L; with Rattus norvegicus [13], 180.63%; in the assay on Rattus norvegicus [15] it was 1.38 mEq/L; in the assay with Rattus norvegicus [16] it was 5.13 mL.

As to `COc1cc(C2CC(c3ccc(Cl)cc3)=NN2C(=O)Cc2ccccc2)ccc1OCC(=O)O` (configuration not stated), the Ratio stood at 4.38 with Rattus norvegicus [1], 1.5 with Rattus norvegicus [2], 0.88 in the assay on Rattus norvegicus [12] and 0.76 in the assay on Rattus norvegicus [14]. The Activity with Rattus norvegicus [3] turned out to be 2.84 mL; with Rattus norvegicus [4] it was 1.65 mEq/L; in the assay on Rattus norvegicus [5] it was 2.86 mEq/L; in the assay with Rattus norvegicus [6], 219.36%; in the assay on Rattus norvegicus [7], 0.67 mEq/L; in the assay on Rattus norvegicus [8], 0.74 mEq/L. For the same compound, the Activity came out at 2.84 mL in the assay on Rattus norvegicus [9]; 6.23 mL with Rattus norvegicus [10]; 1.26 mEq/L in the assay on Rattus norvegicus [11]; 156.69% with Rattus norvegicus [13]; 1.96 mEq/L in the assay with Rattus norvegicus [15]; 4.45 mL with Rattus norvegicus [16].

On to `COc1cc(C2CC(c3ccc(O)cc3O)=NN2C(=O)COc2ccccc2)ccc1OCC(=O)O` (configuration not stated), for which the Ratio in the assay on Rattus norvegicus [1] is reported as 5.58; in the assay on Rattus norvegicus [2], 1.5; with Rattus norvegicus [12], 1.12; with Rattus norvegicus [14] it was 0.76. The Activity is 2.74 mL in the assay with Rattus norvegicus [3]; 2.12 mEq/L with Rattus norvegicus [4]; 3.66 mEq/L in the assay with Rattus norvegicus [5]; 279.19% with Rattus norvegicus [6]; 0.66 mEq/L in the assay with Rattus norvegicus [7]; 0.55 mEq/L in the assay with Rattus norvegicus [8]. Also, the Activity with Rattus norvegicus [9] was found to be 2.74 mL; in the assay with Rattus norvegicus [10], 7.65 mL; in the assay with Rattus norvegicus [11], 1.92 mEq/L; in the assay with Rattus norvegicus [13] it was 150%; in the assay with Rattus norvegicus [15], 1.69 mEq/L; in the assay with Rattus norvegicus [16], 4.11 mL.

In the case of `COc1cc(C2CC(c3ccccc3)=NN2C(=O)c2ccccc2O)ccc1OCC(=O)O` (configuration not stated), the Ratio with Rattus norvegicus [1] was determined as 0.16; in the assay on Rattus norvegicus [2] it was 0.5; in the assay with Rattus norvegicus [12], 0.03; in the assay with Rattus norvegicus [14], 0.25. Besides, the Activity in the assay on Rattus norvegicus [3] was found to be 2.34 mL; in the assay with Rattus norvegicus [4], 0.12 mEq/L; in the assay on Rattus norvegicus [5] it was 0.16 mEq/L; in the assay with Rattus norvegicus [6] it was 8.54%; in the assay on Rattus norvegicus [7], 0.16 mEq/L; with Rattus norvegicus [8], 0.16 mEq/L. The Activity with Rattus norvegicus [9] is 2.34 mL; in the assay with Rattus norvegicus [10], 0.2 mL; in the assay on Rattus norvegicus [11], 0.35 mEq/L; in the assay with Rattus norvegicus [13] it was 49.57%; with Rattus norvegicus [15], 0.06 mEq/L; in the assay on Rattus norvegicus [16], 1.16 mL.

The record behind these values is ChEMBL document CHEMBL3046926, “Molecular properties prediction, synthesis, and diuretic activity of phenoxy acetic acid bearing pyrazolines” (2013).
